Test results published in patent publication US20250325552A1, “SUBSTITUTED THIADIAZOLYL DERIVATIVES AS DNA POLYMERASE THETA INHIBITORS” (IDEAYA Biosciences, Inc., priority 2020, published 2025).

Each molecule was assayed against Polθ theta (1-899) (hPolQ) (Homo sapiens (Human), UniProt O75417) (assay: Biological Assay 1: Polθ ATPase activity, NADH oxidation-coupled enzymatic assay (10 nM enzyme, 30 min)). Conditions: Polθ (1-899) 10 nM, 100 μM ATP, 300 nM dT50 ssDNA; Examples 1 to 268; read-out: ATPase NADH coupling:Standard Screening:hPolQ IC50.
Sequence of Polθ theta (1-899) (hPolQ) (O75417 1-899): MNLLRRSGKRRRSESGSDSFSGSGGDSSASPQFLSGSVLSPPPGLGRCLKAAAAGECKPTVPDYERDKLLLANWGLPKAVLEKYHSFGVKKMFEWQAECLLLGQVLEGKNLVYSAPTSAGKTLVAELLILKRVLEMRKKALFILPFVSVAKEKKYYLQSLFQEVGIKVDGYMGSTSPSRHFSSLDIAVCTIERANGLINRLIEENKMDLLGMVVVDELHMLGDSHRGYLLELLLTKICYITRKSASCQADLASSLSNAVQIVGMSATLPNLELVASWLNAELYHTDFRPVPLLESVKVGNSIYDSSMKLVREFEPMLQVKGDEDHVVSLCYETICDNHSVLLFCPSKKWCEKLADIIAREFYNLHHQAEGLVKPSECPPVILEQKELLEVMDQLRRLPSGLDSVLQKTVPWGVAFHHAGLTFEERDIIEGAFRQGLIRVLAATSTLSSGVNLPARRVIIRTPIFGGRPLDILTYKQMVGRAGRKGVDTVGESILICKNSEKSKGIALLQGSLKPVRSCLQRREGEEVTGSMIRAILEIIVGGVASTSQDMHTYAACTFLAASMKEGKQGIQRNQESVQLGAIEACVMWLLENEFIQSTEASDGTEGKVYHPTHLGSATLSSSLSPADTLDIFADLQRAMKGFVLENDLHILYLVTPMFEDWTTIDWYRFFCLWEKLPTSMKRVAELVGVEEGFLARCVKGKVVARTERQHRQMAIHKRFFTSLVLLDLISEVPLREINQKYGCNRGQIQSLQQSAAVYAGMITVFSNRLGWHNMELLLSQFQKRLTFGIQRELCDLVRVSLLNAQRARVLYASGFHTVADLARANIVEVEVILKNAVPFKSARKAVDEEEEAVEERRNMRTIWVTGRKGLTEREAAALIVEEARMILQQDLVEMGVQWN
Assay type: biochemical
In short: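 ATP turnover was coupled to NADH oxidation and followed at 340 nm every minute for 30 min. Enzyme (residues 1-899, 10 nM) sat with compound for 15 min at room temperature before an equal-volume addition of 100 μM ATP plus 300 nM dT50 ssDNA. Progress-curve slopes from 10-point dilutions were fitted by a four-parameter model.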
COc1cccc(F)c1-c1cc(C)ncc1C(=O)Nc1nnc(OCc2ccc(OC(C)C)cn2)s1 [Example 75, 4-(2-fluoro-6-methoxyphenyl)-N-(5-((5-isopropoxypyridin-2-yl)methoxy)-1,3,4-thiadiazol-2-yl)-6-methylnicotinamide] showed an IC50 of no more than 200 nM.
Work on COc1cnc(Cl)cc1-c1cc(C)ncc1C(=O)Nc1nnc(OC[C@@]23COC[C@@H]2C3)s1 (single isomer, unassigned) [Example 230] yielded an IC50 of no more than 200 nM.
Molecule COc1cnc(Cl)cc1-c1cc(C)ncc1C(=O)Nc1nnc(OCc2ccc([C@H](C)O)cn2)s1 [Example 68, (S)-2′-chloro-N-(5-((5-(1-hydroxyethyl)pyridin-2-yl)methoxy)-1,3,4-thiadiazol-2-yl)-5′-methoxy-6-methyl-(4,4′-bipyridine)-3-carboxamide] has an IC50 of no more than 200 nM.
COc1cccc(F)c1-c1cc(C)ncc1C(=O)Nc1nnc(OCC23CC(CO)(C2)C3)s1 [Example 132, 4-(2-fluoro-6-methoxyphenyl)-N-(5-((3-(hydroxymethyl)bicyclo(1.1.1)pentan-1-yl)methoxy)-1,3,4-thiadiazol-2-yl)-6-methylpyridine-3-carboxamide] gave an IC50 of no more than 200 nM.
Work on COc1ccc(Cl)cc1-c1cc(C)ncc1C(=O)Nc1nnc(OCc2ccc([S@@](C)(=N)=O)cc2)s1 [Example 123, (S)-4-(5-chloro-2-methoxyphenyl)-6-methyl-N-(5-((4-(S-methylsulfonimidoyl)benzyl)oxy)-1,3,4-thiadiazol-2-yl)nicotinamide] yielded an IC50 of no more than 200 nM.
With COc1cnc(C2CC2)cc1-c1cc(C)ncc1C(=O)Nc1nnc(OCc2ccc(C(C)(C)O)cn2)s1 [Example 105, 2′-cyclopropyl-N-(5-((5-(2-hydroxypropan-2-yl)pyridin-2-yl)methoxy)-1,3,4-thiadiazol-2-yl)-5′-methoxy-6-methyl-[4,4′-bipyridine]-3-carboxamide] the IC50 was no more than 200 nM.
Molecule COc1cnc(Cl)cc1-c1cc(C)ncc1C(=O)Nc1nnc(OC[C@H]2CCC[C@@H]2O)s1 (single isomer, unassigned) [Example 256, 2′-chloro-N-(5-((2-hydroxycyclopentyl)methoxy)-1,3,4-thiadiazol-2-yl)-5′-methoxy-6-methyl-(4,4′-bipyridine)-3-carboxamide] has an IC50 of no more than 200 nM.
Cc1cc(-c2cc(C)ncc2C(=O)Nc2nnc(OCc3ccc(C(C)(C)O)cn3)s2)ccn1 [Example 89, N-(5-((5-(2-hydroxypropan-2-yl)pyridin-2-yl)methoxy)-1,3,4-thiadiazol-2-yl)-2′,6-dimethyl-(4,4′-bipyridine)-3-carboxamide] gave an IC50 of 200 to 500 nM.
COc1cnc(Cl)cc1-c1cc(C)ncc1C(=O)Nc1nnc(OC[C@@H]2CCOC2(C)C)s1 (single isomer, unassigned) [Example 191] was tested, and the IC50 was no more than 200 nM.
COCc1cccc(COc2nnc(NC(=O)c3cnc(C)cc3-c3ccccc3OC)s2)n1 [Example 26, N-(5-((6-(methoxymethyl)pyridin-2-yl)methoxy)-1,3,4-thiadiazol-2-yl)-4-(2-methoxyphenyl)-6-methylnicotinamide] was tested, and the IC50 was 200 to 500 nM.
In the case of COc1cccc(F)c1-c1cc(C)ncc1C(=O)Nc1nnc(OCc2ccc3c(n2)OCCO3)s1 [Example 35, N-(5-(2H,3H-(1,4)dioxino(2,3-b)pyridin-6-ylmethoxy)-1,3,4-thiadiazol-2-yl)-4-(2-fluoro-6-methoxyphenyl)-6-methylpyridine-3-carboxamide], the IC50 is reported as no more than 200 nM.
Molecule COc1cnc(Cl)cc1-c1cc(C)ncc1C(=O)Nc1nnc(OCC2CNC2)s1 [Example 173, N-(5-(azetidin-3-ylmethoxy)-1,3,4-thiadiazol-2-yl)-2′-chloro-5′-methoxy-6-methyl-(4,4′-bipyridine)-3-carboxamide] has an IC50 of 1000 to 10000 nM.
With COc1cnc(Cl)cc1-c1cc(C)ncc1C(=O)Nc1nnc(OCC2COC(C)(C)CO2)s1 (stereo not shown) [Example 228, 2′-chloro-N-(5-((5,5-dimethyl-1,4-dioxan-2-yl)methoxy)-1,3,4-thiadiazol-2-yl)-5′-methoxy-6-methyl-(4,4′-bipyridine)-3-carboxamide] the IC50 was no more than 200 nM.
Work on COc1cnc(Cl)cc1-c1cc(C)ncc1C(=O)Nc1nnc(OC[C@@]2(F)CCOC2)s1 (single isomer, unassigned) [Example 263] yielded an IC50 of no more than 200 nM.
COc1cnc(Cl)cc1-c1cc(C)ncc1C(=O)Nc1nnc(OC[C@@H]2COCC(C)(C)O2)s1 (single isomer, unassigned) [Example 220] gave an IC50 of no more than 200 nM.
COCc1ccc(COc2nnc(NC(=O)c3cnc(C)cc3-c3c(F)cccc3OC)s2)nc1 [Example 34, 4-(2-fluoro-6-methoxyphenyl)-N-(5-((5-(methoxymethyl)pyridin-2-yl)methoxy)-1,3,4-thiadiazol-2-yl)-6-methylnicotinamide] showed an IC50 of no more than 200 nM.
COc1cccc(F)c1-c1cnncc1C(=O)Nc1nnc(OCc2ccc(Cl)cn2)s1 [Example 64, N-(5-((5-chloropyridin-2-yl)methoxy)-1,3,4-thiadiazol-2-yl)-5-(2-fluoro-6-methoxyphenyl)pyridazine-4-carboxamide] was tested, and the IC50 was no more than 200 nM.
With COc1cnc(Cl)cc1-c1cc(C)ncc1C(=O)Nc1nnc(OC[C@@H]2CCO[C@@H]2C)s1 (single isomer, unassigned) [Example 179] the IC50 was no more than 200 nM.
CN=[S@](C)(=O)c1ccc(COc2nnc(NC(=O)c3cnc(C)cc3-c3cc(Cl)ccc3OC)s2)nc1 [Example 144, (R)-4-(5-chloro-2-methoxyphenyl)-N-(5-((5-(N,S-dimethylsulfonimidoyl)pyridin-2-yl)methoxy)-1,3,4-thiadiazol-2-yl)-6-methylnicotinamide] was tested, and the IC50 was no more than 200 nM.
In the case of COc1ccc(COc2nnc(NC(=O)c3cnc(C)cc3-c3cc(Cl)ncc3OC)s2)nc1 [Example 45, 2′-chloro-5′-methoxy-N-(5-((5-methoxypyridin-2-yl)methoxy)-1,3,4-thiadiazol-2-yl)-6-methyl-(4,4′-bipyridine)-3-carboxamide], the IC50 is reported as no more than 200 nM.
COc1cccc(F)c1-c1cc2cnc(C)n2cc1C(=O)Nc1nnc(OC[C@H]2CC[C@H](O)CC2)s1 [Example 195, 7-(2-fluoro-6-methoxyphenyl)-N-(5-(((1r,4r)-4-hydroxycyclohexyl)methoxy)-1,3,4-thiadiazol-2-yl)-3-methylimidazo(1,5-a)pyridine-6-carboxamide] showed an IC50 of no more than 200 nM.
COc1ccccc1-c1cc(C)ncc1C(=O)Nc1nnc(OC[C@@H](O)c2ccc(Cl)cn2)s1 [Example 28, (S)—N-(5-(2-(5-chloropyridin-2-yl)-2-hydroxyethoxy)-1,3,4-thiadiazol-2-yl)-4-(2-methoxyphenyl)-6-methylnicotinamide] showed an IC50 of 500 to 1000 nM.
Molecule COc1cnc(Cl)cc1-c1cc(C)ncc1C(=O)Nc1nnc(OC[C@H]2CC[C@@](C)(O)CC2)s1 [Example 215, 2′-chloro-N-(5-(((1s,4s)-4-hydroxy-4-methylcyclohexyl)methoxy)-1,3,4-thiadiazol-2-yl)-5′-methoxy-6-methyl-(4,4′-bipyridine)-3-carboxamide] has an IC50 of no more than 200 nM.
Molecule COc1cnc(Cl)cc1-c1cc(C)ncc1C(=O)Nc1nnc(OC[C@H]2C[C@H](O)C2)s1 [Example 108, 2′-chloro-N-(5-(((1r,3r)-3-hydroxycyclobutyl)methoxy)-1,3,4-thiadiazol-2-yl)-5′-methoxy-6-methyl-[4,4′-bipyridine]-3-carboxamide] has an IC50 of no more than 200 nM.
COc1cccc(F)c1-c1cc(C)ncc1C(=O)Nc1nnc(OC[C@H]2CC[C@@H](O)CC2)s1 [Example 101, 4-(2-fluoro-6-methoxyphenyl)-N-(5-(((1s,4s)-4-hydroxycyclohexyl)methoxy)-1,3,4-thiadiazol-2-yl)-6-methylnicotinamide] was tested, and the IC50 was no more than 200 nM.
Molecule COc1cnc(C)c(F)c1-c1cc(C)ncc1C(=O)Nc1nnc(OC[C@H]2CC[C@@](C)(O)CC2)s1 [Example 213, 3′-fluoro-N-(5-(((1s,4s)-4-hydroxy-4-methylcyclohexyl)methoxy)-1,3,4-thiadiazol-2-yl)-5′-methoxy-2′,6-dimethyl-(4,4′-bipyridine)-3-carboxamide] has an IC50 of no more than 200 nM.
In the case of CN=[S@@](C)(=O)c1ccc(COc2nnc(NC(=O)c3cnc(C)cc3-c3cc(Cl)ccc3OC)s2)nc1 [Example 152, (S)-4-(5-chloro-2-methoxyphenyl)-N-(5-((5-(N,S-dimethylsulfonimidoyl)pyridin-2-yl)methoxy)-1,3,4-thiadiazol-2-yl)-6-methylnicotinamide], the IC50 is reported as no more than 200 nM.
Molecule Cc1cc(-c2c(F)cccc2OC(F)F)c(C(=O)Nc2nnc(OCc3ccc(CO)cn3)s2)cn1 [Example 25, 4-(2-(difluoromethoxy)-6-fluorophenyl)-N-(5-((5-(hydroxymethyl)pyridin-2-yl)methoxy)-1,3,4-thiadiazol-2-yl)-6-methylnicotinamide] has an IC50 of no more than 200 nM.
COc1cnc(Cl)cc1-c1cc(C)ncc1C(=O)Nc1nnc(OCC2CC2(F)F)s1 (stereo not shown) [Example 206, 2′-chloro-N-(5-((2,2-difluorocyclopropyl)methoxy)-1,3,4-thiadiazol-2-yl)-5′-methoxy-6-methyl-(4,4′-bipyridine)-3-carboxamide] gave an IC50 of no more than 200 nM.
In the case of COc1cnc(Cl)cc1-c1cc(C)ncc1C(=O)Nc1nnc(OC[C@@H]2CCC[C@H]2O)s1 (single isomer, unassigned) [Example 255, 2′-chloro-N-(5-((2-hydroxycyclopentyl)methoxy)-1,3,4-thiadiazol-2-yl)-5′-methoxy-6-methyl-(4,4′-bipyridine)-3-carboxamide], the IC50 is reported as no more than 200 nM.

Same assay, conditions: Polθ (1-899) 10 nM, 100 μM ATP, 300 nM dT50 ssDNA; value printed as bound; read-out: ATPase NADH coupling:Standard Screening:hPolQ IC50
Work on O=C(Nc1nnc(OCC2CCOCC2)s1)c1cccnc1N1CCOCC1 [Example 157, 2-morpholino-N-(5-((tetrahydro-2H-pyran-4-yl)methoxy)-1,3,4-thiadiazol-2-yl)nicotinamide] yielded an IC50 greater than 10000 nM.
